According to ChEMBL document CHEMBL5380874, “Transformation of a Dopamine D2 Receptor Agonist to Partial Agonists as Novel Antipsychotic Agents” (J Med Chem, 2023):

Experiments:
[1] = Drug concentration in C57BL/6J mouse brain at 5 mg/kg,ip measured at 2 hrs by LC-MS analysis; format: ADME, organism-based; conditions: read-out: Ct
[2] = target: T1, D(2) dopamine receptor (Homo sapiens, UniProt P14416); assay: Displacement of [3H]N-methylspiperone from Dopamine D2 receptor (unknown origin) expressed in HEK293T cell membrane incubated for 2 hrs by radioligand competitive binding based MicroBeta TriLux reader method; format: cell membranes
[3] = target: T1, D(2) dopamine receptor; assay: Partial agonist activity at Dopamine D2 receptor (unknown origin) expressed in HEK293T co-expressing G-alphai assessed as increase in cAMP accumulation incubated for 5 mins by BRET assay; format: functional, cell-based
[4] = Drug concentration in C57BL/6J mouse plasma at 5 mg/kg,ip measured at 2 hrs by LC-MS analysis; format: ADME, organism-based; conditions: in vivo
[5] = Drug concentration in C57BL/6J mouse brain at 5 mg/kg,ip measured at 0.5 hrs by LC-MS analysis; format: ADME, organism-based; conditions: read-out: Ct
[6] = Ratio of drug concentration in brain to plasma in C57BL/6J mouse at 5 mg/kg,ip measured at 0.5 hrs by LC-MS analysis; format: ADME, organism-based; conditions: read-out: BPR
[7] = Ratio of drug concentration in brain to plasma in C57BL/6J mouse at 5 mg/kg,ip measured at 2 hrs by LC-MS analysis; format: ADME, organism-based; conditions: read-out: BPR
[8] = target: T1, D(2) dopamine receptor; assay: Partial agonist activity at Dopamine D2 receptor (unknown origin) expressed in HEK293T coexpressing beta-arrestin-2 assessed as increase in cAMP accumulation incubated for 5 mins by beta-arrestin recruitment based BRET assay; format: functional, cell-based
[9] = Drug concentration in C57BL/6J mouse plasma at 5 mg/kg,ip measured at 0.5 hrs by LC-MS analysis; format: ADME, organism-based; conditions: in vivo
[10] = Tmax in Sprague-Dawley rat at 10 mg/kg,po measured upto 24 hrs by LC-MS analysis; format: ADME, organism-based; conditions: in vivo
[11] = C0 in Sprague-Dawley rat at 3 mg/kg,iv measured upto 24 hrs by LC-MS analysis; format: ADME, organism-based; conditions: in vivo
[12] = Oral bioavailability in Sprague-Dawley rat at 10 mg/kg measured upto 24 hrs by LC-MS analysis; format: ADME, organism-based; conditions: in vivo
[13] = target: D(1A) dopamine receptor (Homo sapiens, UniProt P21728); assay: Displacement of [3H]-SCH23390 from Dopamine D1 receptor (unknown origin) expressed in HEK293T cell membrane incubated for 2 hrs by radioligand competitive binding based MicroBeta TriLux reader method; format: cell membranes; conditions: read-out: Ki
[14] = AUC (0-infinity) in Sprague-Dawley rat at 10 mg/kg,po measured upto 24 hrs by LC-MS analysis; format: ADME, organism-based; parameters: dose 10 mg/kg, time < 24 hrs, route po; conditions: in vivo
[15] = target: T2, 5-hydroxytryptamine receptor 2C (Homo sapiens, UniProt P28335); assay: Displacement of [3H]-LSD from 5-HT2C receptor (unknown origin) expressed in HEK293T cell membrane incubated for 2 hrs by radioligand competitive binding based MicroBeta TriLux reader method; format: cell membranes
T2 sequence (P28335 whole entry): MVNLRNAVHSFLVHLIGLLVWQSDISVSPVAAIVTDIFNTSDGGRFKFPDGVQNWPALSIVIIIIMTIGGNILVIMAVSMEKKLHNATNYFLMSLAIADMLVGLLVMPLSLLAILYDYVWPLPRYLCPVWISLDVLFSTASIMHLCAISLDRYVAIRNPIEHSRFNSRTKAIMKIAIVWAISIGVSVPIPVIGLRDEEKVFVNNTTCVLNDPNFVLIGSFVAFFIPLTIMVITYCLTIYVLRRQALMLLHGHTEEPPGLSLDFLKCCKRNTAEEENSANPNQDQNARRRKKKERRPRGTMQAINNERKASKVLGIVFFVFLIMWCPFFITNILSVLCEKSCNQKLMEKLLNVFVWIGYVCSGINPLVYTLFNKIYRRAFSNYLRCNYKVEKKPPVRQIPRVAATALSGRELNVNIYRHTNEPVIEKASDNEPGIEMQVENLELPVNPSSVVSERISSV

[16] = Clearance in Sprague-Dawley rat at 3 mg/kg,iv measured upto 24 hrs by LC-MS analysis; format: ADME, organism-based; conditions: in vivo
[17] = Cmax in Sprague-Dawley rat at 10 mg/kg,po measured upto 24 hrs by LC-MS analysis; format: ADME, organism-based; parameters: time < 24 hrs, dose 10 mg/kg, route po; conditions: in vivo
[18] = Half life in Sprague-Dawley rat at 10 mg/kg,po measured upto 24 hrs by LC-MS analysis; format: ADME, organism-based; conditions: in vivo
[19] = AUC (0-infinity) in Sprague-Dawley rat at 3 mg/kg,iv measured upto 24 hrs by LC-MS analysis; format: ADME, organism-based; parameters: dose 3 mg/kg, time < 24 hrs, route iv; conditions: in vivo
[20] = AUC (0-t) in Sprague-Dawley rat at 10 mg/kg,po measured upto 24 hrs by LC-MS analysis; format: ADME, organism-based; parameters: time < 24 hrs, dose 10 mg/kg, route po; conditions: in vivo
[21] = target: D(1B) dopamine receptor (Homo sapiens, UniProt P21918); assay: Displacement of […] from Dopamine D5 receptor (unknown origin) expressed in HEK293T cell membrane incubated for 2 hrs by radioligand competitive binding based MicroBeta TriLux reader method; format: cell membranes; conditions: read-out: Ki
[22] = Half life in Sprague-Dawley rat at 3 mg/kg,iv measured upto 24 hrs by LC-MS analysis; format: ADME, organism-based; conditions: in vivo
[23] = AUC (0-t) in Sprague-Dawley rat at 3 mg/kg,iv measured upto 24 hrs by LC-MS analysis; format: ADME, organism-based; parameters: dose 3 mg/kg, time < 24 hrs, route iv; conditions: in vivo

T1 sequence (P14416 whole entry): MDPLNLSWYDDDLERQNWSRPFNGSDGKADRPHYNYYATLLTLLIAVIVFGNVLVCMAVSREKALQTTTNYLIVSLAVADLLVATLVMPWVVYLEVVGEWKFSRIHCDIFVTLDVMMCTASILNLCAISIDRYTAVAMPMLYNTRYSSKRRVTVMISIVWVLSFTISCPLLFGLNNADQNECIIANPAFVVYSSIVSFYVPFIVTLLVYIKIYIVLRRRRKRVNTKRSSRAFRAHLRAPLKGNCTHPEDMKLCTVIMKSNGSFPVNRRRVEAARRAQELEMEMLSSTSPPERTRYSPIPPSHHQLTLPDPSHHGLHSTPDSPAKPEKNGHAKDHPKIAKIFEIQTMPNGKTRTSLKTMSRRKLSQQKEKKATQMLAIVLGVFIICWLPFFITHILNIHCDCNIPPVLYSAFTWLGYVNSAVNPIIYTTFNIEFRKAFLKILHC
Chain of D(1B) dopamine receptor (P21918 whole entry): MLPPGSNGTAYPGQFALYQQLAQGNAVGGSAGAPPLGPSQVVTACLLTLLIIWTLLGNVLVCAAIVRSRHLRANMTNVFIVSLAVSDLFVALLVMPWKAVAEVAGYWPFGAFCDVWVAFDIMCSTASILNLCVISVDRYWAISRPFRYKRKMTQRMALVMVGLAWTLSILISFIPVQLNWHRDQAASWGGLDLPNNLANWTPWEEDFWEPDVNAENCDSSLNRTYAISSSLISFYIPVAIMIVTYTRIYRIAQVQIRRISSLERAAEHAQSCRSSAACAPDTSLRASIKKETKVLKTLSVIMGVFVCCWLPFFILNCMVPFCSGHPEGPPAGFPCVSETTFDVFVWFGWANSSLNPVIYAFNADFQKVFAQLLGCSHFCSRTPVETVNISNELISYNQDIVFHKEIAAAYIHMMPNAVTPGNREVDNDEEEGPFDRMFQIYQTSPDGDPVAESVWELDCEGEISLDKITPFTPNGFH
Chain of D(1A) dopamine receptor (P21728 whole entry): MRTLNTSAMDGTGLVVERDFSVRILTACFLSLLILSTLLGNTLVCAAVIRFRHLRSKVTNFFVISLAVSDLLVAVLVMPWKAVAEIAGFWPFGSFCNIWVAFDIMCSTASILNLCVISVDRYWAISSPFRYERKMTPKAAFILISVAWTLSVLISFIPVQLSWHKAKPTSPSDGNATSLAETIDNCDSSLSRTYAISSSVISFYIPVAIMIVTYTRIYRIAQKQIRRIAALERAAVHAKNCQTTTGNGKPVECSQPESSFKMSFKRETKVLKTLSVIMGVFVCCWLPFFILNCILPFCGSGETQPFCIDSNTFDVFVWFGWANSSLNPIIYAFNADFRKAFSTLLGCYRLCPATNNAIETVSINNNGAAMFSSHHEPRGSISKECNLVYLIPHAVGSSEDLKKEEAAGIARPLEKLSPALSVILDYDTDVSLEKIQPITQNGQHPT

Work on `CCOc1cccc2cc(CNCCCCOc3ccc4ccc(=O)[nH]c4c3)oc12` yielded a concentration at 2 h [1] of 5.76 ng/mL, a Ki ([2]; read-out: Ki) of 0.00012 µM and a Ki ([2]; read-out: pKi (converted)) of 0.000129 µM. It also gave an EC50 ([3]; read-out: EC50) of 0.00013 µM, an EC50 ([3]; read-out: pEC50 (converted)) of 0.000123 µM and a Cp [4] of 53.1 ng/mL. The concentration at 0.5 h [5] was 48.3 ng/mL, the Kp at 0.5 h [6] was 0.061 and the Kp at 2 h [7] was 0.109. For the same molecule, the EC50 ([8]; read-out: EC50) was 0.00022 µM and the Cp [9] was 792 ng/mL.

`COc1cccc2c3c(oc12)CN(CCCCOc1ccc2ccc(=O)[nH]c2c1)CC3` gave a Tmax [10] of 0.5 h, a C0 at 24 h [11] of 1330 ng/mL and an EC50 ([3]; read-out: EC50) of 0.0188 µM. For the same molecule, the Cp [4] was 397 ng/mL, the bioavailability [12] was 88.8% and the Ki [13] was 0.189 µM. It also gave an AUC(0-inf) [14] of 8940 ng·h/mL, a Ki ([15]; read-out: Ki) of 0.555 µM and a Ki ([15]; read-out: pKi (converted)) of 0.562 µM. The clearance [16] was 16.7 mL/min/kg, the Cmax [17] was 1560 ng/mL and the half-life [18] was 2.87 h. It also gave an AUC(0-inf) [19] of 3010 ng·h/mL, an AUC(0-t) at 24 h [20] of 8920 ng·h/mL and a Ki [21] of 1.04 µM. For the same molecule, the half-life [22] was 3.48 h and the AUC(0-t) at 24 h [23] was 2990 ng·h/mL.

Molecule `CCOc1cccc2cc(CNCC[C@H]3CC[C@H](NC(=O)C4CC4)CC3)oc12` has a Ki ([2]; read-out: Ki) of 0.0628 µM, an EC50 ([3]; read-out: EC50) of 0.0068 µM and an EC50 ([8]; read-out: EC50) of 0.00408 µM.

`CCOc1cccc2cc(CNCC[C@H]3CC[C@H](NC(=O)N(C)C)CC3)oc12` showed a Ki ([2]; read-out: Ki) of 0.0993 µM, an EC50 ([3]; read-out: EC50) of 0.0147 µM and an EC50 ([8]; read-out: EC50) of 0.00381 µM.

For `O=c1ccc2ccc(OCCCCNCc3cc4ccccc4o3)cc2[nH]1`, the Ki ([2]; read-out: Ki) was 0.239 µM, the EC50 ([3]; read-out: EC50) was 0.0258 µM and the EC50 ([8]; read-out: EC50) was 0.00251 µM.

Work on `COc1cccc2cc(CNCCCOc3ccc4ccc(=O)[nH]c4c3)sc12` yielded a Ki ([2]; read-out: Ki) of 0.181 µM, an EC50 ([3]; read-out: EC50) of 0.27 µM and an EC50 ([8]; read-out: EC50) of 0.0205 µM.

In the case of `CCOc1cccc2cc(C(C)NCC3(O)CCCCC3)oc12` (centres undefined), the Ki ([2]; read-out: Ki) is reported as 2.13 µM.

In the case of `CC(C)Oc1cccc2c3c(oc12)CN(CCCCOc1ccc2ccc(=O)[nH]c2c1)CC3`, the EC50 ([3]; hek293t) is reported as “Not Active”.

Molecule `COc1cccc2c3c(oc12)CN(CCCCOc1ccc2c(c1)NC(=O)C2)CC3` has a Ki ([2]; read-out: Ki) of 3.19 µM, a Ki ([2]; read-out: pKi (converted)) of 3.24 µM and an EC50 ([3]; read-out: EC50) of 0.869 µM. The EC50 ([8]; read-out: EC50) was 1.34 µM and the EC50 ([8]; read-out: pEC50 (converted)) was 1.41 µM.

Molecule `CCOc1cccc2cc(CNCCCCOc3ccc4c(c3)NC(=O)CC4)oc12` has a concentration at 2 h [1] of 6.05 ng/mL, a Cp [4] of 53.8 ng/mL and a concentration at 0.5 h [5] of 168 ng/mL. The Kp at 0.5 h [6] was 0.142 and the Kp at 2 h [7] was 0.113.

For `CCOc1cccc2c3c(oc12)CN(CCCCOc1ccc2ccc(=O)[nH]c2c1)CC3`, the EC50 ([3]; hek293t) was “Not Active”.

Work on `COc1cccc2c3c(oc12)CN(CCCCOc1ccc2ccc(=O)n(C)c2c1)CC3` yielded a Ki ([2]; read-out: Ki) of 2.28 µM.
